The OPERA property sets (Mansouri et al. 2018)

settings: not given

SMILES	log10 Koc (L/kg)	log10 vapour pressure (mmHg)	melting point [°C]	boiling point [°C]	log10 Koa	log10 Henry constant (atm·m³/mol)	ready biodegradability	log10 biodegradation half-life (days)
OC(Cn1cncn1)(c1ccc(F)cc1)c1ccccc1F (stereo unspecified)	1.88	-10.3	130					
CCOC(=O)CC(=O)CC				191				
CC(C)(C)c1cc([N+](=O)[O-])cc([N+](=O)[O-])c1O			126					
CCOC(=O)CN				149				
Cc1c(Cl)c(C)c(Cl)c(Cl)c1Cl			223					
C=CCCCCCC=C				142				
CO[C@H]1O[C@H](CNC(=O)N(CCCl)N=O)[C@@H](O)[C@H](O)[C@H]1O			111					
Brc1ccc(Oc2ccccc2Br)cc1					8.47			
COC(C)CC(OC)OC (stereo unspecified)				157				
S=C=Nc1cccc(Cl)c1				250				
OC(c1ccccc1)(c1ccccc1)c1ccccc1			164	380				
CN(C)NC(=O)CCC(=O)O	0.95		154					
OCCc1c[nH]c2ccccc12			59					
CCCCOC(C)=O		1.06		126	3.65	-3.55	readily biodegradable	
OC(c1ccc(Cl)cc1)(c1cncnc1)c1ccccc1Cl (stereo unspecified)	2.78		118					
CCCCOCC(C)C				151				
Cc1ccc(N=Nc2c(O)ccc3ccccc23)c([N+](=O)[O-])c1							not readily biodegradable	
O=C(C(Br)Br)C(Br)(Br)Br			79.5					
COc1ccc(NC(C)=O)cc1Cl	1.95							
CC(=O)Oc1cccc2cc3cccc(OC(C)=O)c3c(OC(C)=O)c12							not readily biodegradable	
O=[N+]([O-])c1cc(N(CCO)CCO)ccc1NCCO			95.5					
CC(CC=O)CC(C)(C)C (stereo unspecified)		-1.1		173			not readily biodegradable	

SMILES	log10 Koc (L/kg)	log10 vapour pressure (mmHg)	melting point [°C]	boiling point [°C]	log10 Koa	log10 Henry constant (atm·m³/mol)	ready biodegradability	log10 biodegradation half-life (days)
NC(Cc1cc(Br)c(O)c(Br)c1)C(=O)O (stereo in doubt)			245					
NC(=O)c1ccccc1Br			160					
CC(N)=S	0.78		116				not readily biodegradable	
CC(C)COC(=O)C(=O)OCC(C)C				229				
CC(=O)c1c(C)c[nH]c1C			138					
c1ccc2[nH]nnc2c1	1.69		100	350				
O=C(O)Cc1cccc2ccccc12	2.2		135				not readily biodegradable	
CCCCCCCCCCCCCCCCCC(=O)NCO							readily biodegradable	
COc1nn(CSP(=S)(OC)OC)c(=O)s1	1.53	-5.47	39					
CC1CCNCC1				130				
CCCCNCCCC		0.413	-62	160		-4.05	readily biodegradable	
C=C(C)C(=O)OCC(F)(F)C(F)F				124				
OCc1cccs1				207				
Cc1nccnc1C				156				
COc1ccccc1NC(C)=O			87.5	304				
CC(C)(C)Oc1ccccc1			-24	186				
CCOC(=O)C(Br)CC (stereo unspecified)				177				
O=c1ccn([C@@H]2O[C@H](CO)[C@@H](O)[C@@H]2O)c(=O)[nH]1			165					
CCN(C(C)=O)c1ccccc1			55	260				
CC(=O)N1C[C@H](O)C[C@H]1C(=O)O			132					
Clc1cccc(-c2cc(Cl)ccc2Cl)c1						-3.7		
Cc1cc2ncn(C3OC(CO)C(O)C3O)c2cc1C (stereo unspecified)			198					

SMILES	log10 Koc (L/kg)	log10 vapour pressure (mmHg)	melting point [°C]	boiling point [°C]	log10 Koa	log10 Henry constant (atm·m³/mol)	ready biodegradability	log10 biodegradation half-life (days)
CC(C)I		1.63	-90	89.5				
Cc1c(C)c(Br)c(Br)c(Br)c1Br			262	374				
CN(C)c1ccccc1[N+](=O)[O-]			-20					
Cc1ccc(SSc2ccc(C)cc2)cc1			47.5					
CCOc1ccc2c3c1O[C@H]1[C@@H](O)C=C[C@H]4[C@@H](C2)N(C)CC[C@@]341			200					
O=c1[nH]c2ccccc2n1C1CCN(CCCC(c2ccc(F)cc2)c2ccc(F)cc2)CC1			216					
c1ccc2c(c1)OCCOCCOCCOCCO2			79					
CN(C)C(=O)N(C(=O)c1ccccc1)c1ccc(Cl)c(Cl)c1			119					
FC(F)(F)C(F)(F)C(F)(F)C(F)(F)C(F)(F)C(F)(F)I			-46	118				
CN(C)C=Nc1ccccc1				127				
CCSC(=O)SCC				197				
CC(=O)Nc1cccnc1			133	326				
C[C@@H]1O[C@@H](O[C@H]2C[C@@H](O)[C@]3(CO)[C@H]4[C@H](O)C[C@]5(C)[C@@H](C6=CC(=O)OC6)CC[C@]5(O)[C@@H]4CC[C@]3(O)C2)[C@H](O)[C@H](O)[C@H]1O			200					
CCc1ccccc1OC				187				
C=C		4.72	-169	-104	0.28	-0.642		
CCOC(CN)OCC			-78	163				
C=CCC(O)CC=C				151				
Clc1ccc(Oc2ccccc2)cc1		-2.57		284				
CCCCCCCC(=O)N(CCO)CCO							readily biodegradable	
CCCCCCCCCCS		-1.44	-26	241				
Oc1c(Cl)c(O)c(Cl)c(O)c1Cl			136					
ClCCC(Cl)(Cl)Cl				157				

SMILES	log10 Koc (L/kg)	log10 vapour pressure (mmHg)	melting point [°C]	boiling point [°C]	log10 Koa	log10 Henry constant (atm·m³/mol)	ready biodegradability	log10 biodegradation half-life (days)
N#CC1(N=NC2(C#N)CCCCC2)CCCCC1			116					
O=C(OC1CCCCC1)C(=O)OC1CCCCC1			43.5					
Nc1ccccc1C(=O)O			145				readily biodegradable	
O=C(O)c1ccc([N+](=O)[O-])cc1[N+](=O)[O-]			182					
ClC=CCc1ccccc1				211				
CCn1c2ccccc2c2cc(N)ccc21			99					
CC(=O)Nc1ccc2c(c1)Cc1cc([N+](=O)[O-])ccc1-2			262					
COCCCNc1nc(NCCCOC)nc(SC)n1			55					
CC(=O)OC(C)OC(C)=O			18.9	169				
CCN(CC)C(=O)CSc1ccc(Cl)nn1			97				not readily biodegradable	
CCCCCCCCCCCCCCCC[N+](C)(C)C							not readily biodegradable	
Cc1cccc(CN)c1				204				
COc1cccc(Cl)n1				186				
CC1COC(=O)O1 (stereo unspecified)		-1.35	-48.8	242			readily biodegradable	
CC(C)CCOC(=O)OCCC(C)C				234				
CCNc1ccc([N+](=O)[O-])cc1			97					
CCN(CC)CCn1cnc2c1c(=O)n(C)c(=O)n2C			75					
O=Cc1cc(Cl)ccc1O			100					
CNC(=O)N(C)c1nc2ccccc2s1	2.8	-6.95	120					
O=CC(Cl)(Cl)Cl		1.7	-57.5	97.8		-8.54	not readily biodegradable	
Nc1ncnc2c1ncn2[C@H]1CC[C@@H](CO)O1			185					
COc1ccccc1	1.54	0.549	-37.5	154	4.01		readily biodegradable	

SMILES	log10 Koc (L/kg)	log10 vapour pressure (mmHg)	melting point [°C]	boiling point [°C]	log10 Koa	log10 Henry constant (atm·m³/mol)	ready biodegradability	log10 biodegradation half-life (days)
CCC(CC)C(C)(C)CC				163				
Cc1cc(Cl)[nH]n1			118	258				
COC(=O)C(C)C(=O)OC				174				
COCBr				87				
CNC(=O)CC(C)=O							readily biodegradable	
Nc1ccc(S(=O)(=O)Nc2ccccc2)cc1			200					
Clc1cc(Cl)c2oc3c(Cl)c(Cl)c(Cl)cc3c2c1		-8.73	219					
N#Cc1ccc(OC(F)(F)F)cc1				192				
CC(C)CN=C=O				106				
BrC(Br)C(Br)Br		-1.7	0	244			not readily biodegradable	
Nc1ccc(OCCCCCN2C(=O)c3ccccc3C2=O)cc1			114					
COc1ccc(CCc2cc(OC)c3ccccc3n2)cc1OC			116					
CCC(C)C(C)(C)C (stereo unspecified)								0.845
Nc1cc2c(cc1Cl)C(=O)c1ccccc1C2=O			282					
Nc1ccc(Cl)cc1Cl	2.72		63.5	245			not readily biodegradable	
O=C1CCC(=O)N1c1ccccc1			156	400				
O=S(=O)(Cl)C(Cl)(Cl)Cl			140	170				
Clc1ccc(Cl)c(-c2c(Cl)cccc2Cl)c1		-4.65			8.45			
C=CC(CC)c1ccccc1 (stereo unspecified)				192				

same assay, conditions: fish

SMILES	log10 biotransformation half-life (days)	log10 BCF
OC(c1ccc(Cl)cc1)(c1cncnc1)c1ccccc1Cl (stereo unspecified)	0.57	
O=C(O)Cc1cccc2ccccc12		0.47
COc1nn(CSP(=S)(OC)OC)c(=O)s1	-1.15	0.74
BrC(Br)C(Br)Br		0.74
Nc1ccc(Cl)cc1Cl	-0.65	1.36
